{"source": "paper PMC4849654", "about": "“A High-Throughput Cell-Based Screen Identified a 2-[(E)-2-Phenylvinyl]-8-Quinolinol Core Structure That Activates p53” (PLoS ONE, 2016)", "key": {"p53": {"biological_target": "T1, p53 (Homo sapiens, UniProt P04637, R273C)", "T1 construct": "endogenous in cells; host or cells: C33a", "test": "Nuclear/cytoplasmic fractionation and Western analysis of p53", "assay_type": "cell-based", "details": "C33a cells, 6 hrs, Western", "procedure": "For nuclear/cytoplasmic fractionation, 1 × 10^7 C33a cells were treated with 30 μM compound for 6 hrs. The cells were washed with PBS and lysed in 1000 μL of cytoplasmic extraction buffer (10 mM KCl, 10 mM HEPES, pH 7.9, 0.1 mM EDTA, 1 mM dithiothreitol) and incubated on ice for 20 min. 50 μL of 10% NP-40 was added to each lysate, vortexed and then centrifuged at 12,000 × g for 10 min. The cytosolic fraction was collected and the pellet containing the nuclei suspended in 50 μL of nuclear extraction buffer (0.4 M NaCl, 20 mM HEPES, pH 7.9, 1 mM EDTA). The nuclear fraction was incubated for 30 min on ice. The samples were spun at 14,000 × g for 10 min and the supernatants were collected. To concentrate the cytoplasmic fraction, 500 μL methanol, and 200 μL chloroform were added and the samples were vortexed, centrifuged for 10 min at 14,000 × g, and the upper and lower layer were discarded. The solid interphase was collected and suspended in 50 μL of lysis buffer. Equal cell equivalents were loaded on a gel and electrophoresed. For whole cell lysates, C33a cells were lysed with a modified RIPA buffer and subjected to SDS-PAGE electrophoresis. The gels were transferred to nitrocellulose and blots probed with antibodies for p53 (Santa Cruz, antibody FL-303), lamin A/C, and calnexin (Santa Cruz Biotechnology)."}, "C33a cells": {"test_system": "C33a cells", "test": "Cell cycle distribution by PI staining", "assay_type": "cell-based"}, "p53-Luc": {"test_system": "p53-Luc", "test": "In vitro E6 degradation assay (recombinant E6 with p53-Luc lysates)", "assay_type": "biochemical", "details": "50 ng recombinant E6, 10 μM compound, C33a lysates, 6 hours", "procedure": "For the in vitro assay, E6 was cloned into the pMAL vector in frame with the maltose binding protein. The E6 was expressed in bacteria and purified on amylose column. C33a cells were transfected with p53-Luc and incubated overnight. 50 ng recombinant E6 was incubated with 10 μM compound and C33a lysates for 6 hours at 30 degrees. We measured luciferase activity after 30 minutes. For the trypsin and chymotrypsin assay, C33a cells were incubated for 2 hours with the indicated compounds at 10 μM and assessed for chymotrypsin and trypsin activity using Proteasome-Glo assay (Promega). For the in vivo degradation assay, C33a cells expressing Ad-TE6 and Ad-p53 or expressing Ad-TE7 and Ad-Rb-Ren were treated for 8 hours with compounds. After incubation, cells were lysed and luciferase activity measured and p53 levels measured by Western blot."}, "E6": {"biological_target": "E6 (Human papillomavirus type 16, UniProt P03126)", "sequence (P03126 whole entry)": "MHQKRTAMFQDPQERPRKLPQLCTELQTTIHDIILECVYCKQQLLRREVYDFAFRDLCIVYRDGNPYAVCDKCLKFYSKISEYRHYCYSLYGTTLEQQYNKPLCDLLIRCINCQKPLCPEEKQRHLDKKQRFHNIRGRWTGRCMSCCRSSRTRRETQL", "details": "SPR", "procedure": "p53 or E6 (R&D systems) were suspended in 10 mM sodium acetate pH 5.0 and amine linked to a Biacore CM5 chip (GE systems). Free reactive amines were then blocked with ethanolamine. Compound 4 was diluted in HBS P buffer (GE systems) at concentrations 1–30 μM and run over the chip. The association time was monitored for 300s and disassociation time for 1000 sec. After each run, the chip was regenerated using 10 mM glycine pH 3.0. The sensograms were fit to a one-ligand model to determine the Ka and Kd."}, "E6AP": {"biological_target": "T2, E6AP (Homo sapiens, UniProt Q05086)", "T2 sequence (Q05086 1-875)": "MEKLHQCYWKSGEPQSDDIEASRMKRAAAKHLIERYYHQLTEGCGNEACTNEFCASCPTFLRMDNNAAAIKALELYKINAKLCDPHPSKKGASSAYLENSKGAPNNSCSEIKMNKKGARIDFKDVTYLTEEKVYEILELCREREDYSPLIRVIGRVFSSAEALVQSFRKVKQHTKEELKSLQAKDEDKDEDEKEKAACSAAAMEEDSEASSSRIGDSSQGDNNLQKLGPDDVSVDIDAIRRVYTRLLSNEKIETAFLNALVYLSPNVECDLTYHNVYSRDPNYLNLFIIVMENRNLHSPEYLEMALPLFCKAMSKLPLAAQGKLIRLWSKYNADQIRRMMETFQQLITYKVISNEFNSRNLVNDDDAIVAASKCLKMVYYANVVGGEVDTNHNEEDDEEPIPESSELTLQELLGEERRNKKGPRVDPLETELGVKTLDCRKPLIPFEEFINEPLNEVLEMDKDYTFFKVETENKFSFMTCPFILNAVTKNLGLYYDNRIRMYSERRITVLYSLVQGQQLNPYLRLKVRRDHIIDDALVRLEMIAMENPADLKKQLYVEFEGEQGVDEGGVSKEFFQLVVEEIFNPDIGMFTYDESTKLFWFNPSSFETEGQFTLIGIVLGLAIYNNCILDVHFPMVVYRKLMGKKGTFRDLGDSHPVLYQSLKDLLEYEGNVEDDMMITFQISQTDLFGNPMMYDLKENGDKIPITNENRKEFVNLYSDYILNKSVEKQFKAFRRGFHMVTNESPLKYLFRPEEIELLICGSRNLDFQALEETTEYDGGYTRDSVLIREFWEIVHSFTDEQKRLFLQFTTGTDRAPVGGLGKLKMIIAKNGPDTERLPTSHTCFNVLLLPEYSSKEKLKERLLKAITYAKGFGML", "test": "Surface plasmon resonance binding to E6AP", "details": "SPR, data not shown", "description": "Free reactive amines were then blocked with ethanolamine."}, "PUMA promoter": {"test_system": "PUMA promoter", "test": "ChIP-qPCR of p53 binding to the PUMA promoter", "assay_type": "cell-based", "details": "8 hrs", "procedure": "Cells treated with the indicated compounds for 8 hrs, harvested and ChIP was carried using a Chromatin Immunoprecipitation Assay Kit (EMD Millipore). p53-DNA complexes were immunoprecipitated using a mouse monoclonal DO-1 antibody (Santa Cruz) and incubated overnight at 4°C. qPCR amplifications was performed using the primer sequences Puma forward 5’- […], reverse 5’- […]."}, "[1]": {"test_system": "proteasome chymotrypsin-like activity", "test": "Proteasome-Glo chymotrypsin-like activity", "assay_type": "cell-based", "details": "C33a cells, 2 hrs, 10 μM or 30 μM"}}, "data": [{"smiles": "COc1ccc(/C=C/c2ccc3cccc(O)c3n2)cc1OC", "note": "[compound 4]", "values": [{"measurement": "nuclear accumulation of p53 in nuclear fraction compared to vehicle", "setting": "p53", "value": "higher levels of nuclear accumulation of p53"}, {"measurement": "cell cycle distribution", "setting": "C33a cells", "value": "normal cell cycle distribution"}, {"measurement": "restoration of p53 levels in vitro", "setting": "p53-Luc", "value": "restored p53 levels in vitro to similar levels as the proteasome inhibitor MG132"}, {"measurement": "fold lesser affinity for E6 than for p53", "setting": "E6; E6 versus p53", "value": 16, "unit": "fold"}, {"measurement": "Kd", "setting": "E6; read-out: KD for E6, recombinant E6", "value": "3.2 ± 1", "unit": "µM"}, {"measurement": "affinity for E6AP", "setting": "E6AP", "value": "did not have detectable affinity"}, {"measurement": "p53 binding to the PUMA promoter compared to controls", "setting": "PUMA promoter; C33a cells", "value": "38.9±2.4", "unit": "fold"}, {"measurement": "p53 binding to the PUMA promoter compared to controls", "setting": "PUMA promoter; HeLa cells", "value": "31.3±8.7", "unit": "fold"}, {"measurement": "chymotrypsin-like proteasome activity", "setting": "[1]", "value": "did not significantly reduce"}]}]}
